Data reported in patent US20040229246A1, “Diagnostic markers for therapeutic treatment” (Can-Fite Biopharam Ltd., priority 2002, published 2004).
Entries after “also recorded” stand apart in the source; their conditions may differ. Peptide text beside a SMILES is read from it. * marks the point of attachment. Cbz = O=C(OCc1ccccc1)*

What was measured:
[1] = test system: PKA and GSK-3β; assay: Receptor functionality: Western blot of PKA and GSK-3β in B16-F10 melanoma cells; type: cell-based
Method: (§1) To detect the level of expression of the A3AR proteins Western blot analysis was performed. Cells were incubated in the presence and absence of IB-MECA (10 nM), MRS1523 (10 nM), Forskolin (50 nM), 8 Br cAMP (100 μM), Cycloheximide 20 μg/ml or MG 132 (20 nM) for different time periods at 37° C. Cells were then rinsed with ice-cold PBS and transferred to ice-cold lysis buffer (TNN buffer, 50 mM Tris buffer pH=7.5, 150 mM NaCl, NP 40). In the experiment examining the effect of trypsin on A3AR expression, cells were incubated with 0.5 ml of 0.25% trypsin for 5 minutes. The trypsinized cells were washed again with ice-cold PBS, harvested by centrifugation and subjected to lysis in TNN buffer. Cell debris was removed by centrifugation for 10 minutes, at 7500 xg. The supernatant was utilized for Western Blot analysis. Protein concentrations were determined using the Bio-Rad protein assay dye reagent. Equal amounts of the sample (50 μg) were separated by SDS-PAGE, using 12% polyacrylamide gels. The resolved proteins were then electroblotted onto nitrocellulose membranes (Schleicher & Schuell, Keene, NH, USA). Membranes were blocked with 1% bovine serum albumin and incubated with the desired primary antibody (dilution 1:1000) for 24 hours at 4° C. Blots were then washed and incubated with a secondary antibody for 1 hour at room temperature. Bands were recorded using BCIP/NBT color development kit (Promega, Madison, W1, USA). Data presented in the different figures are representative of at least three different experiments.
To test receptor functionality, the protein expression level of PKA and GSK-3β, which are modulated downstream to A3AR activation, was examined. Functional receptor sensitization by IB-MECA was observed after 15 and 60 minutes and was manifested by decreased PKA and increased GSK-3β levels. […] Indeed, the modulatory effect of IB-MECA on PKA and GSK-3β was reversed in the presence of the above agents (FIG. 8a, 8b and 8c).

[2] = molecular target: T1, A3AR (Mus musculus, UniProt Q61618); assay: Western blot analysis of A3AR protein in B16-F10 melanoma cells; type: cell-based; conditions: B16-F10 melanoma cells exposed for 180 minutes to IB-MECA in the presence of the inhibitor
T1 construct: endogenous in cells; host or cells: B16-F10 melanoma cells
T1 sequence (Q61618 1-319): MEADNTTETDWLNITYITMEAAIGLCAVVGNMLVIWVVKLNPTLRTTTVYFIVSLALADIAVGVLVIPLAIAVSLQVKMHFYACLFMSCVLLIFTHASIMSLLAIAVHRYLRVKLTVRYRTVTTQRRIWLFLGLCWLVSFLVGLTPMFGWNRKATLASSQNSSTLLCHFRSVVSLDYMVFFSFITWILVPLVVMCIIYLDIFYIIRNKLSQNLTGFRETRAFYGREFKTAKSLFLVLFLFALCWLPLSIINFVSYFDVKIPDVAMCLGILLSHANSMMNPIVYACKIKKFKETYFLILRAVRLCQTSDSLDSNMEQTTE
Method: as §1
Receptor internalization by treating melanoma cells with trypsin, which removes the cell surface receptor, was examined.
Time dependent expression of A3AR in the melanoma cells was examined by Western blot analysis.

[3] = test system: A3AR; assay: Northern blot analysis of A3AR mRNA in B16-F10 melanoma cells; type: cell-based; conditions: B16-F10 melanoma cells, antagonist with IB-MECA
Method: Total RNA was isolated from B16-F10 melanoma cells treated with IB-MECA, utilizing Tri-reagent (Sigma, Saint Louis). The samples were then subjected twice to phenol:chloroform extraction and washed with chloroform. RNA was precipitated with sodium acetate/ethanol following washing with ethanol, then denatured, separated (25 μg per lane) in 1.1% formaldehyde agarose gels and transferred to Hybond-N membrane. The 390 bp EcoRI fragment from A3AR cDNA clone of mouse (TAA3I.S), kindly supplied by Dr Kathia Ravid, was prepared by random-primed synthesis. Probes were used in RNA blot analysis at a hybridization temperature of 42° C. in the presence of 50% formamide.

[4] = test system: adjuvant induced arthritis; assay: Adjuvant induced arthritis (AIA) in rats, clinical and histological score; type: in vivo; conditions: administered 30 minutes prior to IB-MECA
Method: AIA in Rats: Female Lewis rats, aged 8-12 weeks, obtained from Harlan Laboratories (Jerusalem, Israel), were injected subcutaneously (s.c.) at the tail base with 100 μl of suspension composed of incomplete Freund's adjuvant (IFA) with 10 mg/ml heat killed Mycobacterium tuberculosis, (Mt) H37Ra, (Difco, Detroit, USA). To assess the clinical disease activity score, the animals were inspected every second day for clinical arthritis. The scoring system ranged from 0-4 of each limb: 0-no arthritis; 1-redness or swelling of one toe/finger joint; 2-redness and swelling of more than one toe/finger joints; 3-the ankle and tarsal-metatarsal joints involvement; 4-entire paw redness or swelling. The arthritic score was calculated by adding the four individual legs' score to a maximum of 16. For histological scoring, Animals were sacrificed, the legs were removed up to the knee level, fixed in 10% formaldehyde, decalcified, dehydrated, paraffin-embedded, cut into 4 μm sections and stained by Hematoxylin-Eosin. The assessment of all pathologic findings were performed blind using semi-quantitative grading scales of 0 to 4 for the following parameters: a) extent of inflammatory cells' infiltration to the joint tissues; b) synovial lining cell hyperplasia; c) pannus formation; and d) joint cartilage layers destruction. […] TNF-α was measured in synovia, DLN and spleen tissues derived from control and CF101 treated rats. […] Protein concentrations were determined using the Bio-Rad protein assay dye reagent. […] Bands were recorded using BCIP/NBT color development kit (Promega, Madison, Wis., USA). Densitometry of protein expression was normalized against β-actin and expressed as % of control. […]

[5] = test system: A3AR, A2AR, PI3K, PKB/Akt, IKKα/β, NF-κB, TNF-α, GSK-3β, caspase-3; assay: Western blot of A3AR and downstream signaling proteins in DLN and synovial tissue of AIA rats; type: in vivo; conditions: antagonist followed by IB-MECA

Compound	modulatory effect of IB-MECA on PKA and GSK-3β in the presence of the agent [1]	effect on IB-MECA-induced modulation of A3AR protein expression [2]	further results
Nc1ncnc2c1nc(Br)n2[C@@H]1O[C@@H]2COP(=O)(O)O[C@H]2[C@H]1O [8-Br-cAMP]	reversed	–	–
CC(C)C[C@@H](C=O)NC(=O)[C@H](CC(C)C)NC(=O)[C@H](CC(C)C)NC(=O)OCc1ccccc1 [MG132] (Cbz-Leu-Leu-Leu-aldehyde)	–	prevented A3AR down-regulation	–
CCCOC(=O)c1c(-c2ccccc2)nc(CC)c(C(=O)SCC)c1CCC [MRS1523]	reversed	–	effect on IB-MECA-induced A3AR mRNA expression [3]: reversed the increase in mRNA expression
O=C(Cc1ccccc1)Nc1nc2ccc(Cl)cc2c2nc(-c3ccco3)nn12 [MRS 1220]	–	–	effect on the anti-inflammatory response of IB-MECA (clinical score) [4]: nullified; also recorded: nullification; effect on IB-MECA-induced A3AR modulation [5]: blocked this modulation
C[C@@H]1C[C@@H]([C@H](O)CC2CC(=O)NC(=O)C2)C(=O)[C@@H](C)C1 [cycloheximide]	–	inhibited receptor up-regulation	–
